From patent US20060211672A1, “Use of estrogen receptor-beta selective agonists for radiation-or chemotherapy-induced mucositis and radiation cystitis” (Wyeth, priority 2005, published 2006)

System: radiation-induced mucositis
Experiment: Acute radiation model of oral mucositis in hamsters
Format: in vivo, Syrian Golden Hamsters
Conditions: for % Days with mucositis score ≧3 / Days with mucositis score ≧3: once daily beginning on day -1, 40 Gy radiation day 0, scored day 6 to 28; for Days with mucositis score ≧3: Total Days 240
Text: The acute radiation model in hamsters has proven to be an accurate, efficient and cost-effective technique to provide a preliminary evaluation of anti-mucositis compounds (Sonis et al., Oral Surg Oral Med Oral Pathol 1990; 69(4):437-448). The course of mucositis in this model is well defined and results in peak scores approximately 14-16 Days following radiation. The acute model has little systemic toxicity, resulting in few hamster deaths which makes the acute model amenable for initial efficacy studies. The acute model has also been used to study specific mechanistic elements in the pathogenesis of mucositis.
Forty (40) Male LVG Syrian Golden Hamsters (Charles River Laboratories), aged 5 to 6 weeks, with average body weight of 116.3 g at study commencement, were used. Animals were individually numbered using an ear punch and housed 10 animals per cage. Animals were fed with a Purina Labdiet® 5061 rodent diet and water was provided ad libitum. Animals were acclimatized for two days prior to study commencement.
Animals were randomly and prospectively divided into four (4) treatment groups prior to irradiation. Mucositis was induced using a standardized acute radiation protocol, where a single dose of radiation (40 Gy/dose) was administered to all animals on day 0. Radiation was generated with a 160 kilovolt potential (15-ma) source at a focal distance of 30 cm, hardened with an AI filtration system. Irradiation targeted the left buccal pouch mucosa at a rate of 3.2 Gy/minute. Prior to irradiation, animals were anesthetized with an intra-peritoneal injection of Ketamine (160 mg/kg) and Xylazine (8 mg/kg). The left buccal pouch was everted, fixed and isolated using a lead shield.
Controls or 3-(3-Fluoro-4-hydroxy-phenyl)-7-hydroxy-naphthalene-1-carbonitrile (Compound 1) were given in the volumes and by the routes described in Table 1 and dosing began the day before radiation treatment.
The grade of mucositis was scored, beginning day 6, and for every second day thereafter, through and including day 28. For the evaluation of mucositis, the animals were anesthetized with an inhalation anesthetic, and the left pouch everted. Mucositis was scored visually by comparison to a validated photographic scale, ranging from 0 for normal, to 5 for severe ulceration (clinical scoring). In descriptive terms, this scale is defined as follows: Score: Description: • 0 Pouch completely healthy. No erythema or vasodilation. • 1 Light to severe erythema and vasodilation. No erosion of mucosa. • 2 Severe erythema and vasodilation. Erosion of superficial aspects of mucosa leaving denuded areas. Decreased stippling of mucosa. • 3 Formation of off-white ulcers in one or more places. Ulcers may have a yellow/gray appearance due to pseudomembrane. Cumulative size of ulcers should equal about ¼ of the pouch. Severe erythema and vasodilation. • 4 Cumulative seize of ulcers should equal about ½ of the pouch. Loss of pliability. Severe erythema and vasodilation. • 5 Virtually all of pouch is ulcerated. Loss of pliability (pouch can only partially be extracted from mouth)
A score of 1-2 is considered to represent a mild stage of the disease, whereas a score of 3-5 is considered to indicate moderate to severe mucositis.
The effect on mucositis of each route of administration of Compound 1 compared to vehicle was assessed by determining the difference in the number of days hamsters in each group have ulcerative (score ≧3) mucositis. Statistical significance was assessed by a Chi-squared test and p<0.05 was considered statistically significant.

N#Cc1cc(-c2ccc(O)c(F)c2)cc2ccc(O)cc12 [Compound 1, 3-(3-Fluoro-4-hydroxy-phenyl)-7-hydroxy-naphthalene-1-carbonitrile]
% Days with mucositis score ≧3 (Gavage, 10 mg/kg): 44%
Days with mucositis score ≧3 (Gavage, 10 mg/kg): 106 days
% Days with mucositis score ≧3 (Topical (intrapouch), 500 nM): 30%
Days with mucositis score ≧3 (Topical (intrapouch), 500 nM): 72 days
change in the number of days hamsters had ulcerative (score ≧3) mucositis, in words (administered by gavage, vs vehicle): no significant change
number of days animals experienced ulcerative mucositis, in words (administered topically (into the pouch), vs vehicle): significantly reduced
